The text below walks through data of patent US20240350494A1, “THERAPEUTIC MODULATION OF INTEGRINS” (Pliant Therapeutics, Inc., priority 2021, published 2024).

One experiment concerns lung collagen. The experiment can be described thus: Murine bleomycin model, collagen deposition. The format is in vivo, mice (C57BL/6). Conditions: bleomycin mice. How it is done: (§1) Mice (C57BL/6) were divided into healthy (n=15), vehicle-treated (n=15), and test article-treated (n=15 per dose) groups. Mice in the vehicle and test article-treated groups were administered 3 U/kg of bleomycin (Teva Pharmaceuticals; North Wales, PA) via oropharyngeal aspiration while under anesthesia on day 0. Healthy animals were administered water in a similar fashion. Starting on day 7, mice in the control group were administered PBS vehicle, 130 μL, by oral gavage, BID for 14 days. Also starting on day 7, mice in the test group were administered compound 5 in PBS by oral gavage, BID for 14 days, at relative dosages of 1×, 2.5× and 5×. […] From day 14 through day 21, 9 of the 15 mice were administered ^2H2O for labeling. All mice were sacrificed on day 21 and tissues were collected. Samples were prepared for analysis either directly from lung tissue, or by bronchoalveolar lavage, which washes out the bronchiolar and alveolar space with saline to produce a bronchoalveolar lavage fluid (BALF) in which 80-90% of cells are alveolar macrophages.
FIGS. 2F, 2G, and 2H show high resolution second harmonic generation images of fibrillar collagen (collagen type I and III) taken from formalin-fixed paraffin embedded lung tissue sections from a healthy mouse lung (2F), a vehicle-treated mouse lung (2G) and a test-article treated mouse lung (2H; 500 mg/kg BID). Color scale is indicative of collagen fiber density (red=most dense; blue=least dense).
FIG. 2I is a graph showing the percent total collagen area in the second harmonic generation mouse lung images. Large structural areas of collagen found similarly in healthy and fibrotic tissues (dense collagen fibers surrounding airways were excluded from this analysis to focus on interstitial fibrotic collagen). […] The 1×, 2.5×, and 5× dosages were at the same absolute values in mg/kg as in Example B2.

A further experiment deals with SMAD3 phosphorylation. The experiment can be described thus: Murine bleomycin model, SMAD3 phosphorylation. Type of experiment: in vivo, mice (C57BL/6). The following applies: bleomycin day 0, oral gavage BID 14 days from day 7 at 1×, 5×, FIG. 2C.
Source text: It has been previously shown that inhibition of αVβ6 in the lung can be detected though measurement of phospho-SMAD (pSMAD) in alveolar macrophages. Alveolar macrophages are known to operate in a unique niche in the lung, distinct from interstitial macrophages. SMAD3 is a downstream target of the active TGF-β cytokine binding its receptor and in alveolar macrophages it is phosphorylated by homoeostatic levels of TGF-β. Accordingly, it was desirable to know whether inhibition of TGF-β activation using the disclosed compounds would result in reduced SMAD2 and SMAD3 phosphorylation.
as §1, with “Samples were prepared for analysis either directly from lung tissue, or by bronchoalveolar lavage, which washes out the bronchiolar and alveolar space with saline to produce a bronchoalveolar lavage fluid (BALF) in which 80-90% of cells are alveolar macrophages.” left out

Another experiment concerns pSmad2/Smad2. The experiment can be described thus: Alveolar pSmad2/Smad2 in BAL, 80 mg and 160 mg QD (FIG. 10). Type of experiment: in vivo, human. Conditions: 80 mg and 160 mg QD (Part 1), p<0.0001. Here is the method: Alveolar pSmad2/Smad2 percentage change from baseline at 24 h (Part 1: 80 mg and 160 mg). […] BAL—bronchoalveolar lavage; pSmad2/Smad2—ratio of phosphorylated Smad2 to total Smad2; QD—once daily.

Experiment [1] concerns Quantitative Lung Fibrosis (QLF). The experiment can be described thus: Phase 2a trial in IPF, HRCT-based Quantitative Lung Fibrosis. The format is in vivo, human. Conditions: baseline to week 12, CT Protocol Population. An excerpt:
The exploratory endpoints of the trial measured changes in forced vital capacity (FVC), HRCT-based Quantitative Lung Fibrosis score (QLF), and selected biomarkers over 3 months of treatment.
FIG. 29 illustrates the Mean Percent Change in Quantitative Lung Fibrosis (the extent from baseline to week 12 in the CT Protocol Population), using High-Resolution Computed Tomography (HRCT) based Quantitative Lung Fibrosis (QLF) imaging.

For another experiment, the system named is COL1A1 expression. The experiment can be described thus: Precision cut lung slices from human IPF explants, COL1A1 expression. Type of experiment: cell-based. An excerpt:
Explanted lung tissue was obtained from human IPF subjects and inflated with agarose as described in the preceding examples. Biopsy cores were obtained from the agarose-inflated lung tissue. The biopsy cores were subjected to precision slicing to obtain several hundred μm thick. Individual slices were distributed in a multiwell culture plate and cultured for […] under control (DMSO) and test compound conditions. The viability of the slices over the course of culturing was confirmed by WST-1 assay of mitochondrial activity.
PCLS from 5-7 idopathic pulmonary fibrosis (IPF) lung tissue samples were cultured for seven days with one of: DMSO; Compound 5 at 200 nM; nintedanib at 75 nM; pirfenidone at 50 μm; a combination of Compound 5 at 200 nM and nintedanib at 75 nM; a combination of Compound 5 at 200 nM and pirfenidone at 50 μm; or an Alk5 inhibitor at 1 μm. […] FIG. 4D is a bar graph showing relative expression of COL1A1 in precision cut lung slices (PCLS) from idopathic pulmonary fibrosis (IPF) lung tissue upon exposure to Compound 5, clinical standard of care compounds nintedanib (Nin) and pirfenidone (Pirf), and an ALK5 inhibitor, all versus DMSO control.
PCLS from a single IPF lung tissue sample were cultured for seven days with Compound 5 at concentrations of 200 μM, 2 nM, 60 nM, 200 nM, and 1 μM, along with 0.1% DMSO control and an Alk5 inhibitor at 1 μM. […] COL1A1 expression is also graphed for the PCLS in the presence of 0.1% DMSO control, and an Alk5 inhibitor at 1 μM.

Turning to `COCCN(CCCCc1ccc2c(n1)NCCC2)CC[C@H](Nc1ncnc2ccccc12)C(=O)O` [Compound 5, (S)-4-((2-methoxyethyl)(4-(5,6,7,8-tetrahydro-1,8-naphthyridin-2-yl)butyl)amino)-2-(quinazolin-4-ylamino)butanoic acid], the “accumulated new collagen (percentage of lung collagen containing 2H-labeled hydroxyproline)” value in the experiment with lung collagen (1× and 5× BID, FIG. 2D) is “dose-dependent reduction”. Moreover, in the experiment with lung collagen (1×, […], 5× BID, FIG. 2E), the “total pulmonary collagen (μg of hydroxyproline)” value is “reduction in total pulmonary collagen”. Besides, the “total collagen area in second harmonic generation images” value in the experiment with lung collagen (1×, […], 5× BID, FIG. 2I) is listed as “substantial, statistically significant dose-dependent reduction”. Also, the “SMAD3 phosphorylation in lung tissue compared to vehicle-treated mice” value in the experiment on SMAD3 phosphorylation is on record as “substantial, statistically significant dose-dependent reductions”. Moreover, in the experiment with pSmad2/Smad2, the “Alveolar pSmad2/Smad2 percentage change from baseline at 24 h vs. placebo” value is recorded as “statistically significant at both doses”. Also, in experiment [1] (40 mg (N = 15)), the “Improvers < −2% QLF extent change, (%)” value was found to be 6.6%; the “Median, QLF extent change” value is 1.50%; the “Stable [−2, 2%) QLF extent change, (%)” value was 46.7%; the “Worse > 2% QLF extent change, (%)” value was 46.7%. In experiment [1] (80 mg (N = 18)), the “Improvers < −2% QLF extent change, (%)” value was 11.1%; the “Mean Difference (SD), QLF extent” value amounted to 0.70%; the “Median, QLF extent change” value is −0.45%; the “Stable [−2, 2%) QLF extent change, (%)” value was 72.2%. Also, the “Worse > 2% QLF extent change, (%)” value in experiment [1] (80 mg (N = 18)) is on record as 16.7%. In experiment [1] (160 mg (N = 14)), the “Improvers < −2% QLF extent change, (%)” value stood at 28.6%; the “Mean Difference (SD), QLF extent” value came to 0.00%; the “Median, QLF extent change” value is recorded as −0.10%; the “Stable [−2, 2%) QLF extent change, (%)” value came out at 50.0%. In addition, in experiment [1] (160 mg (N = 14)), the “Worse > 2% QLF extent change, (%)” value is reported as 21.4%. For the same compound, the “lung Col1a1 expression, normalized to DMSO control slices” value with COL1A1 expression (human IPF slices, 3 days, 3G9 ≥400 ng/mL, compound 5 179 nM, ALK5 inhibitor 1 μM, FIG. 4C) was “substantial, statistically significant (p<0.01 vs vehicle) decrease”. In addition, the “COL1A1 expression, concentration dependence” value with COL1A1 expression (single IPF sample, seven days, 200 μM, 2 nM, 60 nM, 200 nM, 1 μM, FIG. 4E) was “dose dependent reduction”.
